System: rats
Experiment: animal experiments: recovery of cognitive abilities in rats after administration of deoxypeganine
Format: in vivo
Conditions: restoration did not occur, or occurred only considerably later, in untreated control animals

## c1ccc2c(c1)CN1CCCC1=N2 [deoxypeganine, 1,2,3,9-tetrahydropyrrolo[2,1-b]quinazoline]
  recovery of cognitive abilities: able to bring about a recovery of cognitive abilities
